Reference: PubChem BioAssay (NCI)
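The compound was tested at five concentrations on cells cultured in 96-well plates, with a 48-hour exposure period. At the TGI there is no net growth.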 *1 amine or outer side, *2 acyl side, *3 side chain or, on linkers, in order; H or OH if unused. Where a SMILES comes first, the peptide text is derived from it. [ ]: non-standard residue; d: D form. ξ: configuration not given here. X22 = O=C(C(CC(O)CO)O[*:1])[*:2]; Ile(3ξ) = CCC(C)[C@H](N)C(=O)O; NMeV = CN[C@H](C(=O)O)C(C)C; NMeA = CN[C@@H](C)C(=O)O; βAla = NCCC(=O)O

What was measured:
Test in all cases: inhibition of tumour cell growth, NCI panel, 48 h
SF-268 CNS = test system: SF-268 CNS
HT29 colon = test system: HT29 colon
SF-295 CNS = test system: SF-295 CNS
EKVX NSCLC = test system: EKVX NSCLC
SW-620 colon = test system: SW-620 colon
RXF 393 renal = test system: RXF 393 renal
A549 NSCLC = test system: A549 NSCLC
SF-539 CNS = test system: SF-539 CNS
M14 melanoma = test system: M14 melanoma
TK-10 renal = test system: TK-10 renal
CAKI-1 renal = test system: CAKI-1 renal
CCRF-CEM leukemia = test system: CCRF-CEM leukemia
UACC-62 melanoma = test system: UACC-62 melanoma
SK-MEL-28 melanoma = test system: SK-MEL-28 melanoma
HOP-62 NSCLC = test system: HOP-62 NSCLC
UACC-257 melanoma = test system: UACC-257 melanoma
SR leukemia = test system: SR leukemia
MDA-MB-435 = test system: MDA-MB-435
OVCAR-5 ovarian = test system: OVCAR-5 ovarian

Row | Compound | TGI (SF-268 CNS) [µM] | TGI (HT29 colon) [µM] | TGI (SF-295 CNS) [µM] | TGI (EKVX NSCLC) [µM] | TGI (SW-620 colon) [µM] | TGI (RXF 393 renal) [µM] | TGI (A549 NSCLC) [µM] | TGI (SF-539 CNS) [µM] | TGI (M14 melanoma) [µM] | TGI (TK-10 renal) [µM] | TGI (CAKI-1 renal) [µM] | TGI (CCRF-CEM leukemia) [µM] | TGI (UACC-62 melanoma) [µM] | TGI (SK-MEL-28 melanoma) [µM] | TGI (HOP-62 NSCLC) [µM] | TGI (UACC-257 melanoma) [µM] | TGI (SR leukemia) [µM] | TGI (MDA-MB-435) [µM] | TGI (OVCAR-5 ovarian) [µM]
1 | N#CC1CCCCC1NC1(C#N)CCCCC1 (stereo not given) | > 100 | > 100 | > 100 | > 100 | > 100 | > 100 | > 100 | > 100 | > 100 | > 100 | > 100 | > 100 | > 100 | > 100 | > 100 | > 100 |  |  | 
2 | C=C(C)CC(C)(c1cc2ccccc2n1C)N1CCOCC1 (stereo not given) | > 100 | > 100 | > 100 | > 100 | > 100 | > 100 | > 100 | > 100 | > 100 | > 100 | > 100 | > 100 | > 100 | > 100 | > 100 | > 100 | > 100 |  | 
3 | Cc1cccc(C)c1N1C(=O)C2c3[nH]c4ccccc4c3C3CCC(C(C)(C)C)CC3C2C1=O (stereo not given) | 39 | 32 | 51.9 | 23.4 | 21 | 26.3 | > 100 | 37.5 | 32 | 33.8 | 26.8 | 45.1 | 36.2 | 45.5 | 13.7 | 37.5 | > 100 | > 100 | 55.9
4 | Clc1ccc(-c2nc3ccc4ccccc4c3c3c2CCCC3)cc1 | > 100 | > 100 | > 100 | > 100 | > 100 | > 100 | > 100 | > 100 | > 100 | > 100 | > 100 | > 100 | > 100 | > 100 | > 100 | > 100 |  | > 100 | > 100
5 | CCC(C)[C@@H]1NC(=O)[C@@H]2CCCN2C(=O)C(CC(O)CO)OC(=O)CCNC(=O)[C@H](C)N(C)C(=O)[C@H](C(C)C)N(C)C1=O (stereo not given in full) (cyclo([Ile(3ξ)][NMeV][NMeA][βAla][X22]P)) | > 100 | > 100 | > 100 |  | > 100 | > 100 | > 100 | > 100 | > 100 | > 100 | > 100 | > 100 | > 100 | > 100 | > 100 | > 100 | > 100 |  | > 100
6 | CCn1c(O)c(C=Nc2ccccc2)s/c1=N/Nc1nc(-c2ccc(O)c(O)c2)cs1 | > 100 | > 100 | 85.6 | > 100 | > 100 | > 100 | > 100 | 4.76 | > 100 | > 100 | > 100 | 57 | > 100 | > 100 | > 100 | > 100 | 15.9 |  | > 100
7 | O=S(=O)(Oc1ccc2ccccc2c1-c1c(OS(=O)(=O)C(F)(F)F)ccc2ccccc12)C(F)(F)F | > 100 | > 100 | > 100 | > 100 | > 100 | > 100 | > 100 | > 100 | > 100 |  | > 100 | > 100 | > 100 | > 100 | > 100 | 8.3 | > 100 | > 100 | > 100
8 | CSc1nc2nc(C(O)C(O)C(O)CO)cnc2c(=O)[nH]1 (stereo not given) | > 100 | > 100 | > 100 | > 100 | > 100 | > 100 | > 100 | > 100 | > 100 | > 100 | > 100 | > 100 | > 100 | > 100 | > 100 | > 100 |  |  | > 100
9 | COC1=CC(=O)C2C(C1=O)C(c1ccc(Cl)cc1)[C@@H]2C (stereo not given in full) | 92.7 | > 100 | > 100 | 71.4 | 74.9 | 79.1 | > 100 | 51.2 | 71.7 | > 100 | > 100 | 93.2 | 63 | > 100 | > 100 | > 100 |  |  | > 100
10 | CC(NC(=O)OC(C)(C)C)C(=O)NC(Cc1ccccc1)C(=O)NCC(=O)Oc1c(Cl)c(Cl)c(Cl)c(Cl)c1Cl (stereo not given) |  | 73.2 |  | 48.7 | 47 | 35.4 | 48.1 |  | 73.8 | 71.5 |  |  | 50.4 | 71.1 | 37.4 | 54.5 | 64.7 |  | 42.8
11 | Cc1cc(-c2cscn2)c(O)c([N+](=O)[O-])c1 |  | > 100 | > 100 | > 100 | > 100 |  | > 100 | > 100 | > 100 | > 100 | > 100 | > 100 | > 100 |  | > 100 | > 100 |  | > 100 | > 100
12 | COC(=O)/C(=N/NC(C)(C)C)C(C(=O)OC)C(=O)C(=O)Nc1nc2ccc([N+](=O)[O-])cc2s1 (stereo not given) | > 100 | > 100 | > 100 | > 100 | > 100 |  | > 100 | > 100 | > 100 | > 100 | > 100 | > 100 | > 100 | > 100 | > 100 | > 100 | > 100 |  | > 100
13 | COC(=O)C(Cc1nc2ccccc2[nH]c1=O)C(=O)C(=O)Nc1ccc(F)cc1 (stereo not given) | 56.4 | > 100 | > 100 | > 100 | 42.8 | 47.1 | > 100 | > 100 | > 100 | > 100 | > 100 | > 100 | 67.8 | 89.1 | > 100 | > 100 | > 100 |  | 
14 | CCSc1nnc(-c2ccccc2)nc1Cc1ccc(OC)cc1 | > 100 | > 100 | > 100 | > 100 | > 100 | > 100 | > 100 | > 100 | > 100 | > 100 |  | > 100 | > 100 | > 100 | > 100 | > 100 | > 100 |  | 
